Read-outs that look alike come from different tables or passages of the source.
Columns and labels:
[1] = ADME solubility determination at pH 2.0 and pH 7.4; format: physicochemical; details: aqueous buffer, thermodynamic from solid, LC-MS/MS
Procedure: Certain Compounds of the Disclosure were assessed for ADME solubility at pH 2.0 and pH 7.4.
Stock solutions were prepared by adding each compound to DMSO at a concentration of 10 mM. Samples were prepared by adding 50 μL of each stock solution to separate vials. The vials were loaded onto a 96-well rack and dried. 500 μL of Phosphate Buffered Saline (PBS) pH 7.4 or PBS pH 2.0 were added into each vial. The vials were then shaken at 25° C. and 1,100 rpm for 24 hours.
After 24 hours, the vials were centrifuged at 3220 G and 25° C. for 30 minutes. The supernatant fluid was analyzed by LC-MS/MS against a standard of known concentration. The solubility of each sample was then calculated using the equation below:
[formula] where DF is the dilution factor.

[2] = Liver microsomal stability, human liver microsomes; format: in vitro ADME; details: 1 μM compound, NADPH, read-out: t1/2 (min) in HLM
Procedure: (§1) Certain Compounds of the Disclosure were assessed for ADME metabolic stability in human liver microsomes (HLM) and rat liver microsomes (RLM).
(§2) Samples were prepared by adding 222.5 μL of a master solution (100 mM phosphate buffer and 1 mg/mL liver microsomes (HLM or RLM)) and 25 μL of a 10 mM NADPH solution to incubation plates, which were then warmed for 10 min. Each compound was separately dissolved in DMSO to prepare 10 mM stock solutions, which were then diluted to 100 μM with acetonitrile. A reaction was started by adding 2.5 μL of the 100 μM solution of each compound to separate incubation plates such that the final concentration of for each compound in each plate was 1 μM.
(§3) 25 μL aliquots of each sample were taken at 0.5, 5, 10, 15, 20 and 30 minutes, and the reaction was stopped by adding 5 volumes of cold acetonitrile with IS (100 nM alprazolam, 200 nM caffeine and 100 nM tolbutamide). The samples were then centrifuged at 3,220 G for 30 minutes, and 100 μL of the supernatant fluid was mixed with 100 μL of ultra-pure H2O.
(§4) The samples were then analyzed by LC-MS/MS. Peak areas were determined from extracted ion chromatograms. Slope values (k) were determined by linear regression of the natural logarithm of the remaining percentage of the compound vs. incubation time curve. […] The in vitro half-life (min) was converted into the in vitro intrinsic clearance (in vitro CLint, in μL/min/mg protein) using the following equation: […]

[3] = Liver microsomal stability, rat liver microsomes; format: in vitro ADME; details: 1 μM compound, NADPH, read-out: t1/2 (min) in RLM
Procedure: as §1, §2, §3, §4

[4] = PBS pH 2.0, shaken at 25° C. for 24 hours, read-out: Solubility at pH 2.0
[5] = PBS pH 7.4, shaken at 25° C. for 24 hours, read-out: Solubility at pH 7.4

| solubility at 24 h [1, 4] [µM] | solubility at 24 h [1, 5] [µM] | half-life at 1 μM [2] [min] | half-life at 1 μM [3] [min] | Structure (SMILES) |
| --- | --- | --- | --- | --- |
| > 10 | > 10 | > 25 | > 25 | COc1ncnc(C)c1-c1ncc2cnn(Cc3ccc(-c4nc(C(F)(F)F)cn4C)cc3)c2n1 [Example 33] |
| > 10 | > 10 | < 25 | < 25 | COCCOc1ncnc(C2CC2)c1-c1ncc2cnn(Cc3ccc(-c4nc(C(F)(F)F)cn4C)cc3)c2n1 [Example 42] |
| > 10 | > 10 | > 25 | < 25 | CCOc1ncnc(OC)c1-c1ncc2cnn(Cc3ccc(-c4nc(C(F)(F)F)cn4CC)cc3)c2n1 [Example 113] |
| > 10 | > 10 | < 25 | < 25 | COc1ncnc(C2CC2)c1-c1ncc2cnn([C@H](C)c3ccc(-c4nc(C(F)(F)F)cn4C)cc3)c2n1 (single isomer, unassigned) [Example 93] |
| < 10 | < 10 | < 25 | < 25 | CCn1cc(C(F)(F)F)nc1-c1ccc(Cn2ncc3cnc(-c4c(OCCF)ncnc4C4CC4)nc32)cc1 [Example 54] |
| < 10 | < 10 | > 25 | < 25 | CCn1cc(C(F)(F)F)nc1-c1ccc(Cn2ncc3cnc(-c4c(OC(F)F)ncnc4C4CC4)nc32)cc1 [Example 61] |
| < 10 | < 10 | > 25 | > 25 | COc1ncnc(C2CC2)c1-c1ncc2cnn(Cc3ccc(-c4nc(C(F)(F)F)cn4C4CC4)cc3)c2n1 [Example 154, 1-(4-(1-Cyclopropyl-4-(trifluoromethyl)-1H-imidazol-2-yl)benzyl)-6-(4-cyclopropyl-6-methoxypyrimidin-5-yl)-1H-pyrazolo[3,4-d]pyrimidine] |
| < 10 | < 10 | < 25 | < 25 | CC(C)c1ccccc1-c1ncc2cnn(Cc3ccc(-c4nc(C(F)(F)F)cn4C)cc3)c2n1 [Example 1, 6-(2-isopropylphenyl)-1-(4-(1-methyl-4-(trifluoromethyl)-1H-imidazol-2-yl)benzyl)-1H-pyrazolo[3,4-d]pyrimidine] |
| > 10 | > 10 | > 25 | > 25 | CCn1cc(C(F)(F)F)nc1-c1ccc(Cn2ncc3cnc(-c4c(OC)ncnc4OC)nc32)cc1 [Example 87] |
| < 10 | < 10 | > 25 | > 25 | COc1ncnc(C2CC2)c1-c1ncc2cnn(Cc3ccc(-n4nc(C(F)(F)F)cc4C(C)C)cc3)c2n1 [Example 29] |
| < 10 | < 10 | > 25 | > 25 | COc1ncnc(C2CC2)c1-c1ncc2cnn(Cc3ccc(-c4nc(C(F)(F)F)c(OC)n4C)cc3)c2n1 [Example 165] |
| < 10 | < 10 | > 25 | > 25 | COc1ncnc(C2(C)CC2)c1-c1ncc2cnn(Cc3ccc(-n4nc(C(F)(F)F)cc4OC)cc3)c2n1 [Example 106] |
| < 10 | < 10 | > 25 | > 25 | CCn1cc(C(F)(F)F)nc1-c1ccc(Cn2ncc3cnc(-c4c(OC)ncnc4C4CC4)nc32)cc1F [Example 18] |
| < 10 | < 10 | > 25 | > 25 | CCn1cc(C(F)(F)F)nc1-c1ccc(Cn2ncc3cnc(-c4c(OC)ncnc4C4CC4)nc32)cn1 [Example 75] |
| > 10 | < 10 | < 25 | > 25 | COc1ncnc(C2CC2)c1-c1ncc2nc(C)n(Cc3ccc(-c4nc(C(F)(F)F)cn4C)cc3)c2n1 [Example 206] |
| < 10 | < 10 | < 25 | < 25 | COc1ncnc(C(C)C)c1-c1ncc2cnn(Cc3ccc(-n4nc(C(F)(F)F)cc4C)cc3)c2n1 [Example 115] |
| < 10 | < 10 | > 25 | < 25 | CCS(=O)(=O)c1ccccc1-c1ncc2cnn(Cc3ccc(-c4nc(C(F)(F)F)cn4C)cc3)c2n1 [Example 7, 6-(2-(ethylsulfonyl)phenyl)-1-(4-(1-methyl-4-(trifluoromethyl)-1H-imidazol-2-yl)benzyl)-1H-pyrazolo[3,4-d]pyrimidine] |
| < 10 | < 10 | > 25 | > 25 | COc1cc(Cn2ncc3cnc(-c4c(OC)ncnc4C4CC4)nc32)ccc1-c1cn(C)c(C(F)(F)F)n1 [Example 35] |
| < 10 | < 10 | < 25 | < 25 | Cc1cnn(C(C)C)c1-c1ncc2cnn(Cc3ccc(-n4nc(C(F)(F)F)cc4C)cc3)c2n1 [Example 44] |
| < 10 | < 10 | < 25 | < 25 | CCn1cc(C(F)(F)F)nc1-c1ccc(Cn2nc(SC)c3cnc(-c4c(OC)ncnc4C4CC4)nc32)cc1 [Example 190, 6-(4-cyclopropyl-6-methoxypyrimidin-5-yl)-1-(4-(1-ethyl-4-(trifluoromethyl)-1H-imidazol-2-yl)benzyl)-3-(methylthio)-1H-pyrazolo[3,4-d]pyrimidine] |
| > 10 | > 10 | > 25 | < 25 | COc1ncnc(C2CC2)c1-c1ncc2cnn(Cc3ccc(-c4nc(C(F)(F)F)cn4C4COC4)cc3)c2n1 [Example 145] |
| < 10 | < 10 | > 25 | > 25 | COc1ncnc(C2CC2)c1-c1ncc2cnn(Cc3ccc(-c4cn(C)c(C(F)(F)F)n4)cc3)c2n1 [Example 13] |
| < 10 | < 10 | < 25 | < 25 | CCn1cc(C(F)(F)F)nc1-c1ccc(Cn2ncc3cnc(-c4c(OC5CCC5)ncnc4C4CC4)nc32)cc1 [Example 64] |
| > 10 | < 10 | > 25 | < 25 | CCn1cc(C(F)(F)F)nc1-c1ccc([C@H](C)n2ncc3cnc(-c4c(OC)ncnc4C4CC4)nc32)cc1 (single isomer, unassigned) [Example 94] |
| > 10 | > 10 | < 25 | < 25 | COc1nc(C)nc(C2CC2)c1-c1ncc2cnn(Cc3ccc(-c4nc(C(F)(F)F)cn4C)cc3)c2n1 [Example 133, 6-(4-Cyclopropyl-6-methoxy-2-methylpyrimidin-5-yl)-1-(4-(1-methyl-4-(trifluoromethyl)-1H-imidazol-2-yl)benzyl)-1H-pyrazolo[3,4-d]pyrimidine] |
| < 10 | < 10 | < 25 | < 25 | CCn1cc(C(F)(F)F)nc1-c1ccc(Cn2ncc3cnc(-c4c(OC(C)(C)C)ncnc4C4CC4)nc32)cc1 [Example 59] |
| > 10 | < 10 | > 25 | > 25 | COc1ncnc(C)c1-c1ncc2cnn(Cc3ccc(-n4nc(C(F)(F)F)cc4C)cc3)c2n1 [Example 48] |
| < 10 | < 10 | > 25 | > 25 | CCOc1cc(C(F)(F)F)nn1-c1ccc(Cn2ncc3cnc(-c4c(OC)ncnc4C4CC4)nc32)cc1 [Example 76] |
| > 10 | < 10 | < 25 | < 25 | CCn1c(-c2ccc(Cn3ncc4cnc(-c5c(OC)ncnc5C5CC5)nc43)cc2)nc(C(F)(F)F)c1OC [Example 164, 6-(4-cyclopropyl-6-methoxypyrimidin-5-yl)-1-(4-(1-ethyl-5-methoxy-4-(trifluoromethyl)-1H-imidazol-2-yl)benzyl)-1H-pyrazolo[3,4-d]pyrimidine] |

Reference: patent publication US11485736B2 (KSQ Therapeutics, Inc., priority 2018, dated 2022)
